Data on one compound can be found in patent US9340532B2, “Methods and compositions for inhibiting CNKSR1” (PHUSIS THERAPEUTICS, INC., priority 2012, dated 2016).

Data set [1] deals with T1, PH-domain of CNKSR1 (Homo sapiens, UniProt Q969H4).
T1 sequence (Q969H4 403-502 limits assumed): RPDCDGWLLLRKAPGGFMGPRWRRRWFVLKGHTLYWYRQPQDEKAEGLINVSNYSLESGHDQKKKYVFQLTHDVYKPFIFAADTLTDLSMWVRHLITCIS
As to the kind of experiment: SPR binding (Biacore 2000) to CNKSR1 PH-domain, initial hits. Particulars: Table 5. The procedure:
In embodiments, a homology model for the PH-domain of CNSKR1 based on known PH-domain crystal structures can be developed. The docking program PHuDock® can be used to identify potential inhibitors of CNKSR1. […] The binding of the compounds to the expressed PH-domain of CNKSR1 (KDobs) can be measured by surface plasmon resonance (SPR) spectroscopy.
Other docking was performed using modeling algorithms with state-of-the-art commercial drug discovery software (Schrodinger suite). […] Additionally, ligand-based approaches provided an alternative to structure based drug discovery. Ligand-based virtual screening methodologies can take into account shape and electrostatics (like ROCS) and the pharmacophoric features (acceptor, donor, hydrophobic, aromatic, etc.) of its functional groups. […] SPR interaction analyses of all other compounds was undertaken using a Biacore T100 with Control and Evaluation software kit.

The test system of data set [2] is H1975 (KRAS wildtype cell line). As to the kind of experiment: Proliferation Assay H1975. It counts as cell-based. The settings on record: Homo sapiens, NCI-H1975, n = 1. Summed up:
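Cells plated 2000 per well, allowed 24 h to attach, then exposed 72 h to agents (0-100 μM for isogenic lines; 0.01 to 50 μM for the RPMI 1640/10% FBS-cultured 30-line NSCLC panel). MTS read at 490 nm after 2 h, normalized to no-cell and no-drug controls; IC50 from curve fitting.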

Data set [3] in a line: Stability in biological media: mouse plasma. The format is in vitro ADME. Particulars: 50 μg/ml, 37° C.
The test system of data set [4] is wt-KRAS NSCLC cell lines. As to the kind of experiment: Screening against NSCLC cell line panel, wt-KRAS lines. The format is cell-based. Particulars: Table 6, mean of 3 wt-KRAS lines; read-out: NSCL cell line cytotoxicity IC50 wt-KRAS. The procedure: The isogenic KRAS lines harboring G12D, G12C, and G12V were obtained from Horizon Discovery labs on a one year lease. These cells were cultured in McCoys media with 10% FBS to 80% confluency. Cells were then released from flasks via trypsinization and plated into 96-well plates at an initial density range of 2000 cells per well. Cells were allowed 24 hours to attach, and then the agents were added to the culture media at a range of concentrations from 0-100 μM. Cells were incubated for 72 hours with the drugs, and then viability was assessed using an MTS viability assay. Cells were exposed to MTS reagent (Promega) dissolved in PBS (Hyclone) at a concentration of 200 μL reagent/mL media for 2 hours. Absorbance was then read at 490 nm, and viability was expressed as a percentage normalized between the negative control (no cells plated) and the condition of cells with no drug added (100% viability) normalized as the upper limit of viability.
Our panel of 30 cell lines and an extensive characterization were obtained from Dr. John Minna (UTSW). All cell lines were cultured in RPMI 1640 with 10% FBS. Cells were treated with concentrations of agents at concentrations 0.01 to 50 μM and evaluated as described above. IC50's were determined using Excelfit.

The target of data set [5] is T2, AKT1 PH-domain (Homo sapiens, UniProt P31749).
T2 construct: The PH-domain His-fusion proteins (CNK1 and AKT1) were expressed and immobilized on a NTA chip; made in house
T2 sequence (P31749 5-108 limits assumed): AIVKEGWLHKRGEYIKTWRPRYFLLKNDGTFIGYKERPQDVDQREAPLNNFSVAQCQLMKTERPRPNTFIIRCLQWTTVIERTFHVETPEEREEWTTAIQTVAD
Put plainly: SPR binding assay (Biacore T100), AKT1 PH-domain. Particulars: Table 6; read-out: AKT KD. The gist of the method: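 His-tagged AKT1 PH domain immobilized on NTA chip to ≤10,000 RU, Biacore T100. Small-molecule analytes injected at 50 μM to 0.010 μM, 30 μL/min, with 1-5% (v/v) DMSO in samples and running buffer.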

For the compound `CCOC(=O)Cc1nn(Cc2nc(-c3ccc(C)cc3)cs2)c(=O)c2ccccc12` [Compound 7], the Kd in data set [1] is 1.8 ± 0.6 µM; in data set [5] it was 17.3 µM. Also, the results for the IC50 in data set [2] and in data set [4] were 45 µM and more than 100 µM, respectively. In data set [3], this compound gave a Half life of 6.3 min.
